Data as given in PMC8615111, “Phenolic Thiazoles with Antioxidant and Antiradical Activity. Synthesis, In Vitro Evaluation, Toxicity, Electrochemical Behavior, Quantum Studies and Antimicrobial Screening” (Antioxidants, 2021).
Values after ≈ are worked out from the molar mass of the structure shown. Read-outs that look alike come from different tables or passages of the source.

Columns and labels:
[1] = ABTS˙^+ radical scavenging assay; type: biochemical
Description: The assay was based on the decolorization of green (2,2′-azinobis-(3-ethylbenzothiazoline-6-sulfonic acid) ABTS˙^+ to ABTS, on the principle reported by Re et al. and was carried out according to our previously published research.
Later, 1950 µL of ABTS˙^+ reagent was added to all cuvettes and they were shaken for well over 10 min in the dark at room temperature. The absorbance of the resulted solutions found in cuvettes was determined spectrophotometrically at λ = 734 nm. The ABTS scavenging activity of the compounds was calculated using the following Equation (1):(1) ABTS scavenging (%)=control absorbance−sample absorbance/control absorbance×100

[2] = DPPH˙ radical scavenging assay; type: biochemical; details: for IC50: DPPH˙ scavenging
Description: The 2,2-diphenyl-1-picrylhydrazyl (DPPH˙) radical scavenging assay is based on the transfer of one hydrogen from the analyzed compound to the violet radical DPPH˙. This will convert it to a yellow compound, the change in absorbance being proportional to the amount of DPPH˙ neutralized, according to Brand-Williams et al..
The preparation of the DPPH˙ reagent was previously reported by our group. […] Over the previous quantities, DMSO was added until a total volume of 50 µL was obtained in all cuvettes, and 1950 µL of DPPH˙ solution was added to all cuvettes; then, they were shaken for well over 10 min in the dark at room temperature. The absorbances of the solutions were measured at λ = 517 nm. The DPPH˙ radical scavenging activity of evaluated compounds was calculated using Equation (2):(2) DPPH scavenging (%)=control absorbance−sample absorbance/control absorbance×100

[3] = TEMPO scavenging by differential pulse voltammetry; details: 2 mM TEMPO, one hour incubation, 0.1 M HClO4, DPV
Description: The antioxidant properties were evaluated in terms of their activity against some free radicals, and other compounds reported in the literature, relevant for this purpose, such as: • ferric ions (Fe^3+)—used to test the reduction of the antioxidant character of the compounds; • DPPH˙ free radical– used to test the scavenging effect of the compounds on this radical; • hydrogen peroxide (H2O2)—used to test the scavenging effect of the synthesized molecules on this compound; • 2,2,6,6-tetramethylpiperidinyl-1-oxy (TEMPO)—used to test the scavenging effect of the synthesized molecules on this compound.
TEMPO (2,2,6,6-tetramethylpiperidine-N-oxyl) is a stable organic nitroxide radical that has been reported to scavenge carbon-centered radicals.
Differential pulse voltammetry (DPV) was then applied in order to evaluate the antioxidant effectiveness of the novel compounds through their ability to scavenge the free radical species.

[4] = system: HaCaT cells; experiment: Cytotoxicity determination, MTT method; type: cell-based; details: Homo sapiens, 24 h
Description: To determine the cytotoxic action of the obtained compounds 5[…], and 8a-b, a normal human keratinocytes cell line was used (HaCaT keratinocytes, CLS-300493, Eppelheim, Germany). HaCaT cells were cultured in Dulbecco's Modified Eagle Media (DMEM) supplemented with 1% L-glutamine, 1% penicillin-streptomycin, and 5% fetal bovine serum. At 80% confluence, the cells were transferred to 96 well plates at a confluence of 12×10^3 cells/well and left to attach for 24 h at 37°C and 5% CO2 in a humidified atmosphere. […] After 24 h, the culture media was replaced with 100 μL of MTT solution at a final concentration of 5 μg/mL/well and left to interact with the cells for 2 h in the incubator. After this, the MTT solution was replaced with 100 μL of isopropanol, left to dissolve the formazan crystals for 5 min, and read at 550 and 630 nm using a BioTek Epoch plate reader (BioTek Instruments, Winooski, VT, USA) and Gen5 software (version 1.09).

[5] = system: E. coli ATCC 25922; experiment: Antimicrobial activity, modified microdilution; type: cell-based; details: Escherichia coli, ATCC25922
Description: (§1) For evaluating the antimicrobial activity of the compounds, […] aerobic microbial strains were used: S. aureus ATCC 25923, S. pyogenes ATCC 19615, P. aeruginosa ATCC 27853, S. enterica ISM 83/37, S. typhimurium ATCC 14028, E. coli ATCC 8739, E. coli ATCC 25922, and C. albicans ATCC 102310 obtained from Food Biotechnology Laboratory, Life Sciences Institute, University of Agricultural Sciences, and Veterinary Medicine Cluj Napoca, where the experiment was performed. The antimicrobial activity of the compounds was determined using a modified microdilution technique, and the followed protocol was previously reported.
(§2) The antimicrobial activity of the final compounds, against seven aerobic microbial strains (S. aureus ATCC 25923, S. pyogenes ATCC 19615, P. aeruginosa ATCC 27853, S. enterica ISM 83/37, S. typhimurium ATCC 14028, E. coli ATCC 8739, E. coli ATCC 25922), and a fungal strain (C. albicans ATCC 102310), was determined using a modified microdilution technique.
(§3) The results of the antimicrobial activity evaluation of the compounds, in comparison to norfloxacin and chloramphenicol used as standard antibiotics and fluconazole used as reference antifungal, are depicted in Table 10.

[6] = system: E. coli ATCC 8739; experiment: Antimicrobial activity, modified microdilution; type: cell-based; details: Escherichia coli, ATCC8739
Description: as §1, §2, §3

[7] = system: P. aeruginosa ATCC 27853; experiment: Antimicrobial activity, modified microdilution; type: cell-based; details: Pseudomonas aeruginosa, ATCC27853
Description: as §1, §2, §3

[8] = system: S. aureus ATCC 25923; experiment: Antimicrobial activity, modified microdilution; type: cell-based; details: Staphylococcus aureus, ATCC25923
Description: as §1, §2, §3

[9] = system: S. enterica ISM 83/37; experiment: Antimicrobial activity, modified microdilution; type: cell-based; details: Salmonella enterica, ISM83/37
Description: as §1, §2, §3

[10] = system: S. pyogenes ATCC 19615; experiment: Antimicrobial activity, modified microdilution; type: cell-based; details: Streptococcus pyogenes, ATCC19615
Description: as §1, §2, §3

[11] = system: S. typhimurium ATCC 14028; experiment: Antimicrobial activity, modified microdilution; type: cell-based; details: Salmonella enterica
Description: as §1, §2, §3

[12] = system: C. albicans ATCC 102310; experiment: Antifungal activity, modified microdilution; type: cell-based; details: Candida albicans, ATCC102310
Description: as §1, §2, §3

[13] = NO˙ radical scavenging assay (Griess reaction); type: biochemical; details: 100 µL of test solution 1 mg/mL in DMSO, 150 min, pH 7.4
Description: Scavenging of the NO˙ radical was performed according to some adapted protocols reported in the literature, based on the nitroprusside decomposition at physiological pH and colorimetric quantification of the resulted products using the Griess reaction.
Over 200 µL of 10 mM sodium nitroprusside, 100 µL of test solutions (1 mg/mL in DMSO), and 400 µL phosphate-buffered saline (PBS, pH = 7.4) were added. The mixture was then incubated at room temperature for 150 min on a rotating shaker (GFL Gesellschaft für Labortechnik, Burgwedel, Germany). After that, 1 mL of sulfanilic acid 0.33% in 20% acetic acid was added and after 5 min, 1 mL of naphthylethylenediamine […] 0.1% was added to all test tubes. After 30 min, the absorbance of the sample, given by the chromophore (azo dye) formed during the diazotization of nitrite ions resulting from decomposition of sodium nitroprusside with sulfanilic acid and coupled with naphthylethylenediamine, was measured at 546 nm. The NO˙ radical scavenging activity of the tested compounds was calculated using Equation (3):(3) NO˙ scavenging (%)=control absorbance−sample absorbance/control absorbance×100

[14] = Fe^2+ chelation assay; type: biochemical
Description: The protocol used for assessing Fe^2+ chelating capacity of the compounds was adapted from a report of Benzie and Strain and previously reported by our group. The iron(II) chelation ability of compounds was calculated using Equation (7):(7) iron chelation (%)=control absorbance−sample absorbance/control absorbance×100
The chelating potential for the ferrous ions of the new compounds was determined, based on their competition for Fe^2+ with ferrozine.

[15] = Cu^2+ chelation assay; type: biochemical

Compound: O=C1O[C@H]([C@@H](O)CO)C(O)=C1O [Ascorbic acid, reference compound]
- % of ABTS˙^+ Scavenged ([1]; 0.5 µg/mL): 9.56%
- % of ABTS˙^+ Scavenged ([1]; 0.75 µg/mL): 14.32%
- % of ABTS˙^+ Scavenged ([1]; 1 µg/mL): 20.61%
- % of ABTS˙^+ Scavenged ([1]; 1.5 µg/mL): 38.24%
- % of ABTS˙^+ Scavenged ([1]; 2.5 µg/mL): 64.58%
- IC50 ([1]; ABTS˙^+ scavenging): 1.97 µg/mL (≈ 11.2 µM)
- % of DPPH˙ Scavenged ([2]; 1 µg/mL): 19.39%
- % of DPPH˙ Scavenged ([2]; 1.5 µg/mL): 29.10%
- % of DPPH˙ Scavenged ([2]; 2 µg/mL): 38.27%
- % of DPPH˙ Scavenged ([2]; 3 µg/mL): 53.42%
- % of DPPH˙ Scavenged ([2]; 5 µg/mL): 80.28%
- IC50 [2]: 2.89 µg/mL (≈ 16.4 µM)
- oxidation signal for TEMPO after incubation with the compound [3]: decreases
- IC50 ([4]; HaCaT): 22.8 µg/mL
- IC50 ([4]; HaCaT cells, MTT, read-out: IC50): 129 µM

Compound: O=C(N[C@H](CO)[C@H](O)c1ccc([N+](=O)[O-])cc1)C(Cl)Cl [Chloramphenicol, reference compound]
- MIC [5]: 3.9 µg/mL (≈ 12.1 µM)
- MIC [6]: 7.8 µg/mL (≈ 24.1 µM)
- MIC [7]: 0.48 µg/mL (≈ 1.49 µM)
- MIC [8]: 7.8 µg/mL (≈ 24.1 µM)
- MIC [9]: 3.9 µg/mL (≈ 12.1 µM)
- MIC [10]: 3.9 µg/mL (≈ 12.1 µM)
- MIC [11]: < 0.48 µg/mL

Compound: OC(Cn1cncn1)(Cn1cncn1)c1ccc(F)cc1F [Fluconazole, reference compound]
- MIC [12]: 31.2 µg/mL (≈ 102 µM)

Compound: O=C(O)c1cc(O)ccc1O [Gentisic acid, reference compound]
- % of NO˙ Scavenged [13]: 47.33%

Compound: CCn1cc(C(=O)O)c(=O)c2cc(F)c(N3CCNCC3)cc21 [Norfloxacin, reference compound]
- MIC [5]: 7.8 µg/mL (≈ 24.4 µM)
- MIC [6]: < 0.48 µg/mL
- MIC [7]: 7.8 µg/mL (≈ 24.4 µM)
- MIC [8]: 0.48 µg/mL (≈ 1.5 µM)
- MIC [9]: < 0.48 µg/mL
- MIC [10]: < 0.48 µg/mL
- MIC [11]: < 0.48 µg/mL

Compound: Cc1c(C)c2c(c(C)c1O)CCC(C)(C(=O)O)O2 (centres unmarked) [Trolox, reference compound]
- % of DPPH˙ Scavenged ([2]; 1 µg/mL): 10.83%
- % of DPPH˙ Scavenged ([2]; 1.5 µg/mL): 17.10%
- % of DPPH˙ Scavenged ([2]; 2 µg/mL): 20.56%
- % of DPPH˙ Scavenged ([2]; 3 µg/mL): 31.91%
- % of DPPH˙ Scavenged ([2]; 5 µg/mL): 53.67%
- IC50 [2]: 4.68 µg/mL (≈ 18.7 µM)
- % of NO˙ Scavenged [13]: 32.12%

Compound: disodium salt of ethylenediaminetetraacetic acid [EDTA-Na2, reference compound]
- Chelation Capacity (%), ferrous ions ([14]; 50 µg/mL): 20.86%
- Chelation Capacity (%), ferrous ions ([14]; 100 µg/mL): 57.32%
- Chelation Capacity (%), ferrous ions ([14]; 150 µg/mL): >95.00%
- Chelation Capacity (%), ferrous ions ([14]; 200 µg/mL): >95.00%
- Chelation Capacity (%), cupric ions ([15]; 3.36 µg/mL): 12.36%
- Chelation Capacity (%), cupric ions ([15]; 6.72 µg/mL): 19.61%
- Chelation Capacity (%), cupric ions ([15]; 10.08 µg/mL): 29.97%
- Chelation Capacity (%), cupric ions ([15]; 13.44 µg/mL): 39.18%
- Chelation Capacity (%), cupric ions ([15]; 16.80 µg/mL): 45.86%
